Test results as given in patent US10456443B2, “Peptidyl calcineurin inhibitors” (OHIO STATE INNOVATION FOUNDATION, priority 2014, dated 2019).
Non-standard residues stand in square brackets, D forms with d. Residues, ends and D or L forms follow the SMILES beside them. Tle = CC(C)(C)[C@H](N)C(=O)O

How the values were obtained:
calcineurin (CN) [1] = target: T1, calcineurin (CN) (Homo sapiens, UniProt Q08209)
calcineurin (CN) [2] = target: T1, calcineurin (CN); details: read-out: IC50, inhibition of the binding of FITC-ZIZIT to CN; FITC-ZIZIT 100 nM, CN 150 nM, unlabeled competing peptide 0-20 μM
macrophage cells = assay: Inflammatory cytokine production in macrophage cells with LPS stimulation; type: cell-based
[3] = system: HeLa cells stably transfected with GFP-NFAT; assay: GFP-NFAT translocation assay, live-cell confocal microscopy; details: 500 nM peptide, 2 h preincubation, 10 min ionomycin stimulation
[4] = Cellular uptake of cell penetrating peptides; type: cell-based; details: versus R11

T1 sequence (Q08209 2-347 limits assumed): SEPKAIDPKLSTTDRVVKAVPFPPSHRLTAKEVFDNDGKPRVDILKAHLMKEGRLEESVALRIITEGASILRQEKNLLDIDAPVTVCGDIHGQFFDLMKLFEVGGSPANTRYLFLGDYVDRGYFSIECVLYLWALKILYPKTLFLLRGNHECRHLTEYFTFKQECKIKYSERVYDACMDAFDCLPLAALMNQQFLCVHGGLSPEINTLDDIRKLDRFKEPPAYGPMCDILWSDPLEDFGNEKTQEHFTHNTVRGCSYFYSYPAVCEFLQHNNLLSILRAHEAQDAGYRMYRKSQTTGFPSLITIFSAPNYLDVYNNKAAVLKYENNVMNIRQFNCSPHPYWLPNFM

Molecule: CC[C@H](C)[C@H](NC(=O)[C@@H](NC(=O)[C@@H](NC(=O)[C@@H](NC(=O)[C@@H]1CCCN1C(=O)[C@H](Cc1c[nH]cn1)NC(=O)[C@@H]1CCCN1C(=O)CN)C(C)(C)C)[C@@H](C)CC)C(C)(C)C)C(=O)N[C@H](C(=O)NCC(=O)N1CCC[C@H]1C(=O)N[C@@H](Cc1c[nH]cn1)C(=O)N[C@@H](CCC(=O)O)C(=O)N[C@@H](CCC(=O)O)C(N)=O)[C@@H](C)O [ZIZIT, GPHPZIZITGPHEE] (H-GPHP[Tle]I[Tle]ITGPHEE-NH2)
- fold higher affinity for CN than VIVIT (calcineurin (CN) [1]; ZIZIT versus VIVIT): 10 fold
- Kd (calcineurin (CN) [1]; read-out: KD against CN, FA assay, N-terminal 5(6)-SFX labeled peptides (100 nM)): 43 ± 12 nM
- IC50 (calcineurin (CN) [2]): 280 ± 90 nM

Molecule: Ac-RRRRRRRRRRRC-SPDP-GPHPZIZITG-Cys(Ψ^Me,MePro)-HEEG-Propyl [R11-ZIZIT-cisPro]
- attenuating the production of inflammatory cytokines (macrophage cells; macrophages, 1 μM, compared with 50 μM R11-VIVIT): significantly more effective than 50 μM R11-VIVIT
- fold more potent than R11-VIVIT in cellular assays (macrophage cells; versus R11-VIVIT): approximately 100 fold
- inhibition of the nuclear translocation of GFP-NFAT [3]: ~95%

Molecule: cyclo(fΦRrRrQ) [CP9]
- fold more active than R11 for cellular uptake [4]: approximately 12 fold
